The target of assay [1] is 5-hydroxytryptamine receptor 1A (Homo sapiens) (UniProt P08908). In words: Partial agonist activity at human 5HT1A receptor expressed in CHO cells assessed as increase in [35S]GTPgammaS binding relative to serotonin. It counts as functional, cell-based.
Assay [2] has as its target T1, 5-hydroxytryptamine receptor 1A (Homo sapiens, UniProt P08908).
T1 sequence (P08908 whole entry): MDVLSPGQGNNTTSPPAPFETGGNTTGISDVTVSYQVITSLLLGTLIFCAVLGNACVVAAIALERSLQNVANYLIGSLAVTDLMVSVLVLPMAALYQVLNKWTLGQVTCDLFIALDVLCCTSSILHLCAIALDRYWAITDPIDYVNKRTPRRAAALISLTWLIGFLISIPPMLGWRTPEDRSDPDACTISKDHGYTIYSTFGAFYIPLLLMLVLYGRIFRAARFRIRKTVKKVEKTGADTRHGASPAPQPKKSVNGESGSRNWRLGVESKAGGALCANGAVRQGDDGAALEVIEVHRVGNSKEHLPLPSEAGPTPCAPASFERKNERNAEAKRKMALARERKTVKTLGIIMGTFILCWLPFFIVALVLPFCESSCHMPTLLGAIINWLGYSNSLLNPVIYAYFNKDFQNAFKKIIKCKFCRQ
Put plainly: Partial agonist activity at human 5HT1A receptor expressed in CHO cells assessed as increase in [35S]GTPgammaS binding. The assay is classed as functional, cell-based.

Assay [3] concerns the target Sigma non-opioid intracellular receptor 1 (Homo sapiens, UniProt Q99720). In words: Binding affinity to sigma 1 receptor (unknown origin).
Assay [4] in a line: Binding affinity to sigma 2 receptor (unknown origin). The arrangement: species or system Homo sapiens.
In the next assay the target is Histamine H2 receptor (Homo sapiens, UniProt P25021). In words: Binding affinity to histamine H2 receptor (unknown origin).
The next assay deals with Histamine H1 receptor (Homo sapiens, UniProt P35367). In words: Binding affinity to histamine H1 receptor (unknown origin).
Histamine H1 receptor, sequence (P35367 whole entry): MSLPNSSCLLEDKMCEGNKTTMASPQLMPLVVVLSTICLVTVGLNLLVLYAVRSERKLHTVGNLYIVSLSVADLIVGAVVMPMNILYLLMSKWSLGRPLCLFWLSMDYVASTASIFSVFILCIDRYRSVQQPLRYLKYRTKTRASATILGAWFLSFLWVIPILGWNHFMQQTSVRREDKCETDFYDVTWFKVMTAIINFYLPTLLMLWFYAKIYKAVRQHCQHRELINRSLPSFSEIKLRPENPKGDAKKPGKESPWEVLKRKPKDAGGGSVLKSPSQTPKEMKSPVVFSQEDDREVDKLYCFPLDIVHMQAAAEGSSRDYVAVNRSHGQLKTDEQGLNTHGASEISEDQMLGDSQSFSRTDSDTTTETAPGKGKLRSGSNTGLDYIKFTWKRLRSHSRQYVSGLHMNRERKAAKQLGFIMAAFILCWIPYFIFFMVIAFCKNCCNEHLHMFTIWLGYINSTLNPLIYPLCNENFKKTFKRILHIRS
The target of the next assay is D(4) dopamine receptor (Homo sapiens, UniProt P21917). In words: Binding affinity to dopamine 4 receptor (unknown origin).
A further assay concerns the target D(3) dopamine receptor (Homo sapiens, UniProt P35462). Put plainly: Binding affinity to dopamine 3 receptor (unknown origin).
In a further assay the target is D(2) dopamine receptor (Homo sapiens, UniProt P14416). Put plainly: Binding affinity to dopamine 2 receptor (unknown origin).
D(2) dopamine receptor, sequence (P14416 whole entry): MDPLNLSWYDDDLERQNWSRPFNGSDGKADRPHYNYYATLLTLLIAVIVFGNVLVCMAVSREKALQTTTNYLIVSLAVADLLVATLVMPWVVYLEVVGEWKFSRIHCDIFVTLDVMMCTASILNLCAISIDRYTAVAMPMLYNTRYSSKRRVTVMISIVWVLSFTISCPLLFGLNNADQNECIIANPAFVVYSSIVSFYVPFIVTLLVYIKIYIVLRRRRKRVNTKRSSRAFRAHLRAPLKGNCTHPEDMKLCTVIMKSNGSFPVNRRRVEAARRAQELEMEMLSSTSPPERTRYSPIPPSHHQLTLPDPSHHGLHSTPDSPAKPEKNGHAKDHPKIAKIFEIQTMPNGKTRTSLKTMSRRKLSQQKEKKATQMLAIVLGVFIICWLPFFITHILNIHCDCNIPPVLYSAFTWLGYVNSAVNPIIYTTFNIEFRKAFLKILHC
The next assay concerns the target D(1A) dopamine receptor (Homo sapiens, UniProt P21728). Put plainly: Binding affinity to dopamine 1 receptor (unknown origin).
Assay [5] is described as follows: Binding affinity to benzodiazepine receptor in rat brain. The assay is classed as tissue-based.
Assay [6] deals with Alpha-2C adrenergic receptor (Homo sapiens, UniProt P18825). In words: Binding affinity to adrenergic alpha2C receptor (unknown origin).
Assay [7] deals with Alpha-2B adrenergic receptor (Homo sapiens, UniProt P18089). In words: Binding affinity to adrenergic alpha2B receptor (unknown origin).
In assay [8] the target is Alpha-2A adrenergic receptor (Homo sapiens, UniProt P08913). Put plainly: Binding affinity to adrenergic alpha2A receptor (unknown origin).
Alpha-2A adrenergic receptor, sequence (P08913 whole entry): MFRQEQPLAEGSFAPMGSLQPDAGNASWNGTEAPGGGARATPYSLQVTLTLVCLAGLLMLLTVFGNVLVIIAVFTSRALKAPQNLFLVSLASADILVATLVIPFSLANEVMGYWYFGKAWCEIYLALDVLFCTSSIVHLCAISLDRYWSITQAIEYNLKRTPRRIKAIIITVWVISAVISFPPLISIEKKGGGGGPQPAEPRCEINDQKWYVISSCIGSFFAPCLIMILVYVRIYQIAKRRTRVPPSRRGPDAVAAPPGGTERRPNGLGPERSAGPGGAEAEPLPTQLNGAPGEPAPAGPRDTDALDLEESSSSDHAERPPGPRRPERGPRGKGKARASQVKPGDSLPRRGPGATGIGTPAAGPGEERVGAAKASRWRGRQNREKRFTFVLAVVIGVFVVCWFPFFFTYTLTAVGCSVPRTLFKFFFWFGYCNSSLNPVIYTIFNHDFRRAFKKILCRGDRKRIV
For assay [9], the target named is Alpha-1D adrenergic receptor (Homo sapiens, UniProt P25100). In words: Binding affinity to adrenergic alpha1D receptor (unknown origin).
Alpha-1D adrenergic receptor, sequence (P25100 whole entry): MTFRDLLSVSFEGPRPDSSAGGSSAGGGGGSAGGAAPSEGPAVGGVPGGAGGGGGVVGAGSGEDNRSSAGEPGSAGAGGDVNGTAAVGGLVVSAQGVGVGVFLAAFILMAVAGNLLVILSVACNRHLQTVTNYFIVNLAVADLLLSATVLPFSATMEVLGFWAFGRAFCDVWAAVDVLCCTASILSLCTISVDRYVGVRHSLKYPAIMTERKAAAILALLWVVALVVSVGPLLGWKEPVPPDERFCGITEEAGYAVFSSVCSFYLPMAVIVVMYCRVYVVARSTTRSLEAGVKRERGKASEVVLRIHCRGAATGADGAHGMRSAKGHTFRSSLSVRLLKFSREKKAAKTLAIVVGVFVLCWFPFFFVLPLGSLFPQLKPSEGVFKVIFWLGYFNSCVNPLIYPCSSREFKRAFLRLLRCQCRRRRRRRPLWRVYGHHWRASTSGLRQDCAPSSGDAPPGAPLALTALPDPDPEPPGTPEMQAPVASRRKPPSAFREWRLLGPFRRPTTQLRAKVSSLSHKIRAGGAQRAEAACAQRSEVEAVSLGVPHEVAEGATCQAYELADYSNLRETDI
In assay [10] the target is Alpha-1B adrenergic receptor (Homo sapiens, UniProt P35368). In words: Binding affinity to adrenergic alpha1B receptor (unknown origin).
Assay [11] has as its target Alpha-1A adrenergic receptor (Homo sapiens, UniProt P35348). Put plainly: Binding affinity to adrenergic alpha1A receptor (unknown origin).
The target of assay [12] is 5-hydroxytryptamine receptor 7 (Homo sapiens, UniProt P34969). In words: Binding affinity to 5HT7 receptor (unknown origin).
5-hydroxytryptamine receptor 7, sequence (P34969 whole entry): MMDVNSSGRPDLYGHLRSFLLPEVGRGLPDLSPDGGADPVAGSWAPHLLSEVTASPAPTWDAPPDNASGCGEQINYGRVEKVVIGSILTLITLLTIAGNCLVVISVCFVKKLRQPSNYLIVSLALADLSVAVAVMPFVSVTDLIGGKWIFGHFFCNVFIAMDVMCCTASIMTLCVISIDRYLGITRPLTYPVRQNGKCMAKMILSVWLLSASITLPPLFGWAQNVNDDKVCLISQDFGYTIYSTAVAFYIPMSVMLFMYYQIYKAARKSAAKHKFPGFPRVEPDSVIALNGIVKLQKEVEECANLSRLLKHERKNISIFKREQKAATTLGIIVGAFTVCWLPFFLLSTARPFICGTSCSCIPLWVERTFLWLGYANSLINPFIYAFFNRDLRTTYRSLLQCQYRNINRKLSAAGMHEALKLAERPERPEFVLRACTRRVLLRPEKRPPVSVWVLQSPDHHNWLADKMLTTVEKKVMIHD
Assay [13] deals with 5-hydroxytryptamine receptor 5A (Homo sapiens, UniProt P47898). In words: Binding affinity to 5HT5A receptor (unknown origin).
5-hydroxytryptamine receptor 5A, sequence (P47898 whole entry): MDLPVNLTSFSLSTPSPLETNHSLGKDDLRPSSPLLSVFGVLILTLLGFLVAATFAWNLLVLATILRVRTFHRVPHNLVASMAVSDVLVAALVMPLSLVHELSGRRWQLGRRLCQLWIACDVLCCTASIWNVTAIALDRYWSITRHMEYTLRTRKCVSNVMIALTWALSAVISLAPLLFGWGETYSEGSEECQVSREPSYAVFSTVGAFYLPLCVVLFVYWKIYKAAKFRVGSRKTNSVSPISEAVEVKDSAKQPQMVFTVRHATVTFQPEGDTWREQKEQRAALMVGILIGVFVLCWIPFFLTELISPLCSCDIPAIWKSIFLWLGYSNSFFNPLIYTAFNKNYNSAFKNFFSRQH
For assay [14], the target named is 5-hydroxytryptamine receptor 2B (Homo sapiens, UniProt P41595). Put plainly: Binding affinity to 5HT2B receptor (unknown origin).
5-hydroxytryptamine receptor 2B, sequence (P41595 whole entry): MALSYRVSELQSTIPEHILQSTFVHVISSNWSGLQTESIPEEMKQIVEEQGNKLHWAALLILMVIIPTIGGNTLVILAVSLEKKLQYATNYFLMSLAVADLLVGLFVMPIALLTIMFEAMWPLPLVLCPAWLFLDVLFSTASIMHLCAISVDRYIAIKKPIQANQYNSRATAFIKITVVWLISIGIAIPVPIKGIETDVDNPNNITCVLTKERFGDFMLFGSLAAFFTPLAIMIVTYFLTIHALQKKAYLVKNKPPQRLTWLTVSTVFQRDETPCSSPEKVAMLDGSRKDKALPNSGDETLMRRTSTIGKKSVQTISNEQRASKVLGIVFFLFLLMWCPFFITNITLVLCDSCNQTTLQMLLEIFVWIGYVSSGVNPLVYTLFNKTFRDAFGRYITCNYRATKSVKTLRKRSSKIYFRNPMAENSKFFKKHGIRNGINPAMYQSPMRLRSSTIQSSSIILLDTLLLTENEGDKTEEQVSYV
For assay [15], the target named is 5-hydroxytryptamine receptor 2A (Homo sapiens, UniProt P28223). In words: Binding affinity to 5HT2A receptor (unknown origin).
5-hydroxytryptamine receptor 2A, sequence (P28223 whole entry): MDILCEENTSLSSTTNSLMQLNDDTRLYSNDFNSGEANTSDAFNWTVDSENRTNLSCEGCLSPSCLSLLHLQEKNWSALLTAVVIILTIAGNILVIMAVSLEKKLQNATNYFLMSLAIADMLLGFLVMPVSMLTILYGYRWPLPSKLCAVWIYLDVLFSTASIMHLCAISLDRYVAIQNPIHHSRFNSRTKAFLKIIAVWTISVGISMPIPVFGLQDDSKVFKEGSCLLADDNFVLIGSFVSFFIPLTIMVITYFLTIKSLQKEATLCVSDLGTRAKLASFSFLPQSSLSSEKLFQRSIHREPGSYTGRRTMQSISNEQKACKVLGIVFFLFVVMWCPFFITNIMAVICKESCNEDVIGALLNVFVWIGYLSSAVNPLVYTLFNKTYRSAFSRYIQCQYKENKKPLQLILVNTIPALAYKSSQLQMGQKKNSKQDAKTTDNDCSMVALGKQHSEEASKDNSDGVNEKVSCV
The target of assay [16] is 5-hydroxytryptamine receptor 1B (Homo sapiens, UniProt P28222). Put plainly: Binding affinity to 5HT1B receptor (unknown origin).
5-hydroxytryptamine receptor 1B, sequence (P28222 whole entry): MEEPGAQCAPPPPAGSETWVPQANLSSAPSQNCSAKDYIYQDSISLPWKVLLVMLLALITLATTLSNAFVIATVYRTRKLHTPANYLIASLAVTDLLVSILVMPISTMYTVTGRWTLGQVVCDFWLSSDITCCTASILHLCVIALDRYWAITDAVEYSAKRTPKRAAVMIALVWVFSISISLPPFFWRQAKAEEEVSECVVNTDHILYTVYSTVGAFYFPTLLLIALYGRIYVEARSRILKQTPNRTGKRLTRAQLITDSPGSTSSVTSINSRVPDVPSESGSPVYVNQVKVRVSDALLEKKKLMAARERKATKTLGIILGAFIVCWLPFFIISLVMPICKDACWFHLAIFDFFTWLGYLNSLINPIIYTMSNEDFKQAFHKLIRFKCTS
Assay [17] has as its target 5-hydroxytryptamine receptor 1D (Homo sapiens, UniProt P28221). In words: Binding affinity to 5HT1D receptor (unknown origin).
Assay [18] addresses T1, 5-hydroxytryptamine receptor 1A. In words: Binding affinity to 5HT1A receptor (unknown origin).

Molecules are shown by their SMILES. Bounds are passed on as bounds.

5-hydroxytryptamine receptor 1D, sequence (P28221 whole entry): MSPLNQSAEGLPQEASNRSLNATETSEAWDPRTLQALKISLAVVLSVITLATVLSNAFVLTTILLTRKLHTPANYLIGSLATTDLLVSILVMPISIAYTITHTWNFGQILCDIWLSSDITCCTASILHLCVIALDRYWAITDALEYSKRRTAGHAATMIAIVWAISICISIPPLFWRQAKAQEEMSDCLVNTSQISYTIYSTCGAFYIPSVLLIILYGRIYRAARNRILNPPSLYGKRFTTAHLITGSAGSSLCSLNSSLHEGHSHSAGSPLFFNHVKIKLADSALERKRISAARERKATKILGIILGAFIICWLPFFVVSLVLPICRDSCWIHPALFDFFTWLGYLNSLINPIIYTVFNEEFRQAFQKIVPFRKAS
D(1A) dopamine receptor, sequence (P21728 whole entry): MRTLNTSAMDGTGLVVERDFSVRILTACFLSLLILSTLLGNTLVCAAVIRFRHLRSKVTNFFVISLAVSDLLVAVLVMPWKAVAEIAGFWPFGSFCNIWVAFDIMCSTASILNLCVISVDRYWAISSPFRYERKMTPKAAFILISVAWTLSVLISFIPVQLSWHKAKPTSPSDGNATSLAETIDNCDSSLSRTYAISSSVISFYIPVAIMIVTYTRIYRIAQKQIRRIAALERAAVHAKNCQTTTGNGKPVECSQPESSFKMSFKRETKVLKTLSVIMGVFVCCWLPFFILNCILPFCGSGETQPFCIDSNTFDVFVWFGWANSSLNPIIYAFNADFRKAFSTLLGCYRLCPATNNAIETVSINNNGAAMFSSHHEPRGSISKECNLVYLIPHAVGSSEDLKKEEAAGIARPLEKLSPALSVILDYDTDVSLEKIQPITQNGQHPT

As to `Cn1c(=O)cnn(CCCCN2CCN(c3ccccc3OCCF)CC2)c1=O`, the maximal response (Emax) in assay [1] is 77%. Further, in assay [2], the half-maximal effective concentration (EC50) was 0.65 nM. In addition, the Ki is > 10 µM in assay [3]; 1730 nM in [4]; 1770 nM at Histamine H2 receptor; 512 nM on Histamine H1 receptor; 71 nM on D(4) dopamine receptor; 22 nM on D(3) dopamine receptor. Further, the Ki at D(2) dopamine receptor is 37.1 nM; at D(1A) dopamine receptor, > 10 µM; in assay [5], 6.24 µM; in [6], 174 nM; in assay [7], 56.2 nM; in assay [8], 2750 nM. For the same compound, the inhibition constant Ki turned out to be 62.6 nM in assay [9]; 26.8 nM in assay [10]; 21.4 nM in [11]; 17.2 nM in assay [12]; 2130 nM in assay [13]; 300 nM in assay [14]. Moreover, the Ki in assay [15] is > 10 µM; in assay [16], 411 nM; in assay [17], 235 nM; in assay [18], 0.1 nM.

By Emax is commonly meant the greatest response seen or fitted, relative to the assay's reference. The EC50 is the concentration that produces a half-maximal response. Broadly, the Ki is a measure of affinity in units of concentration, obtained from inhibition or displacement. Lower therefore signals tighter binding.

These data come from ChEMBL document CHEMBL2413016, “Synthesis and in vivo evaluation of [(18)F]2-(4-(4-(2-(2-fluoroethoxy)phenyl)piperazin-1-yl)butyl)-4-methyl-1,2,4-triazine-3,5(2H,4H)-dione ([(18)F]FECUMI-101) as an imaging probe for 5-HT1A receptor agonist in nonhuman primates” (Bioorg Med Chem, 2013).
